From ChEMBL document CHEMBL2029344, “A new class of prolylcarboxypeptidase inhibitors, part 2: the aminocyclopentanes” (Bioorg Med Chem Lett, 2012)

Key:
[1] = molecular target: T1, Lysosomal Pro-X carboxypeptidase (Mus musculus, UniProt Q7TMR0); experiment: Inhibition of mouse PrCP
T1 sequence (Q7TMR0 whole entry): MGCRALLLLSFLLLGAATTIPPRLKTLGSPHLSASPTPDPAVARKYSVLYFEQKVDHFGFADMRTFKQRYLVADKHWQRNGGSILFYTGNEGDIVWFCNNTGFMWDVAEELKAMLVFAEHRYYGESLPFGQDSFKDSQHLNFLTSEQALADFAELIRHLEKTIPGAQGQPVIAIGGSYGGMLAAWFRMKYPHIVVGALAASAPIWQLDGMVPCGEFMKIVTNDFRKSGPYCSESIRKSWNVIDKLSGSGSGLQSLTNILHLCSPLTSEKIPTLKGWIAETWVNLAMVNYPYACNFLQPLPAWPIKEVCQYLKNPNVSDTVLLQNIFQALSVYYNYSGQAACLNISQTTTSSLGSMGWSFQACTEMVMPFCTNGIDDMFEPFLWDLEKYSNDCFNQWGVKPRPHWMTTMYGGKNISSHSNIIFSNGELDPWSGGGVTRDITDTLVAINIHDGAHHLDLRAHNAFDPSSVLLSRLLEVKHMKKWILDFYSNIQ

[2] = Stability in human liver microsomes after 30 mins by LC/MS analysis; format: ADME, Microsome; conditions: read-out: Stability
[3] = Stability in mouse liver microsomes after 30 mins by LC/MS analysis; format: ADME, Microsome; conditions: read-out: Stability
[4] = Percentage unbound in 10% human plasma; format: ADME, cell-free
[5] = Percentage unbound in 10% mouse plasma; format: ADME, cell-free
Mus musculus [6] = experiment: Ex-vivo inhibition of po dosed mouse PrCP by FRET analysis in presence of heat inactivated 25% plasma; format: functional, organism-based
Mus musculus [7] = experiment: Ex-vivo inhibition of po dosed mouse PrCP by FRET analysis in absence of plasma; format: functional, organism-based
Mus musculus [8] = experiment: Ex-vivo inhibition of po dosed mouse PrCP by FRET analysis in presence of heat inactivated 100% plasma; format: functional, organism-based
[9] = Clearance in mouse at 1 mg/kg, iv and 30 mg/kg, po; format: ADME, organism-based; conditions: in vivo
[10] = Volume of distribution in mouse at 1 mg/kg, iv and 30 mg/kg, po; format: ADME, organism-based; conditions: in vivo
[11] = Half life in mouse at 1 mg/kg, iv and 30 mg/kg, po; format: ADME, organism-based; conditions: in vivo
Mus musculus [12] = experiment: Dose normalized AUC in mouse at 1 mg/kg, iv and 30 mg/kg, po; format: ADME, organism-based; conditions: in vivo
[13] = Oral bioavailability in mouse at 30 mg/kg; format: ADME, organism-based; conditions: in vivo
[14] = Drug uptake in C57 mouse plasma at 30 mg/kg, po after 20 hrs by LC/MS analysis; format: ADME, organism-based; design: dose 30 mg/kg, route oral
[15] = Drug uptake in C57 mouse plasma at 10 mg/kg, po after 20 hrs by LC/MS analysis; format: ADME, organism-based; design: dose 10 mg/kg, route oral
[16] = Drug uptake in C57 mouse brain at 30 mg/kg, po after 20 hrs by LC/MS analysis; format: ADME, organism-based; design: dose 30 mg/kg, route oral; conditions: read-out: Drug uptake
[17] = Drug uptake in C57 mouse brain at 10 mg/kg, po after 20 hrs by LC/MS analysis; format: ADME, organism-based; design: dose 10 mg/kg, route oral; conditions: read-out: Drug uptake
[18] = Ratio of drug uptake in brain to plasma of C57 mouse at 30 mg/kg, po after 20 hrs by LC/MS analysis; format: ADME, organism-based; design: dose 30 mg/kg, route oral; conditions: read-out: BPR
[19] = Ratio of drug uptake in brain to plasma of C57 mouse at 10 mg/kg, po after 20 hrs by LC/MS analysis; format: ADME, organism-based; design: dose 10 mg/kg, route oral; conditions: read-out: BPR
Mus musculus [20] = experiment: Ex-vivo inhibition of PrCP in heat inactivated 100% plasma of C57 mouse assessed as target engagement at 30 mg/kg, po after 20 hrs by FRET analysis; format: functional; design: scale not given: the % may be the effect or the level left
Mus musculus [21] = experiment: Ex-vivo inhibition of PrCP in heat inactivated 100% plasma of C57 mouse assessed as target engagement at 10 mg/kg, po after 20 hrs by FRET analysis; format: functional; design: scale not given: the % may be the effect or the level left
Mus musculus [22] = experiment: Ex-vivo inhibition of PrCP in heat inactivated 100% plasma of C57 mouse assessed as target engagement calculated as [cmpd]plasma/([cmpd]plasma + Ki (heat inactivated plasma))x100 at 30 mg/kg, po after 20 hrs by FRET analysis; format: functional; design: scale not given: the % may be the effect or the level left
Mus musculus [23] = experiment: Ex-vivo inhibition of PrCP in heat inactivated 100% plasma of C57 mouse assessed as target engagement calculated as [cmpd]plasma/([cmpd]plasma + Ki (heat inactivated plasma))x100 at 10 mg/kg, po after 20 hrs by FRET analysis; format: functional; design: scale not given: the % may be the effect or the level left
[24] = Apparent permeability across pig LLC-PK1 cells at 1 uM; format: ADME, cell-based, Sus scrofa
Mus musculus [25] = experiment: Toxicity in po dosed C57 mouse; format: organism-based; conditions: in vivo
Mus musculus [26] = experiment: Ex-vivo inhibition of PrCP in heat inactivated 100% plasma of po dosed C57 mouse assessed as target engagement after 20 hrs by FRET analysis; format: functional; design: scale not given: the % may be the effect or the level left
[27] = Drug uptake in C57 mouse plasma at 3 mg/kg, po after 20 hrs by LC/MS analysis; format: ADME, organism-based; design: dose 3 mg/kg, route oral
[28] = Drug uptake in C57 mouse brain at 3 mg/kg, po after 20 hrs by LC/MS analysis; format: ADME, organism-based; design: dose 3 mg/kg, route oral; conditions: read-out: Drug uptake
[29] = Ratio of drug uptake in brain to plasma of C57 mouse at 3 mg/kg, po after 20 hrs by LC/MS analysis; format: ADME, organism-based; design: dose 3 mg/kg, route oral; conditions: read-out: BPR
Mus musculus [30] = experiment: Ex-vivo inhibition of PrCP in heat inactivated 100% plasma of C57 mouse assessed as target engagement at 3 mg/kg, po after 20 hrs by FRET analysis; format: functional; design: scale not given: the % may be the effect or the level left
Mus musculus [31] = experiment: Ex-vivo inhibition of PrCP in heat inactivated 100% plasma of C57 mouse assessed as target engagement calculated as [cmpd]plasma/([cmpd]plasma + Ki (heat inactivated plasma))x100 at 3 mg/kg, po after 20 hrs by FRET analysis; format: functional; design: scale not given: the % may be the effect or the level left

Cc1nc(C2CCN(C(=O)[C@@H]3C[C@](C)(N)C[C@H]3c3ccc(F)cc3F)CC2)n(-c2ccc(F)c(Cl)c2)n1
IC50 [1]: 47.8 nM
remaining at 0.5 h [2]: 91%
remaining at 0.5 h [3]: 93%

C[C@@]1(N)C[C@@H](C(=O)N2CCC(c3ncnn3-c3ccc(F)c(Cl)c3)CC2)[C@H](c2ccc(F)cc2F)C1
IC50 [1]: 16 nM
fraction unbound [4]: 0.21
fraction unbound [5]: 0.15

Cc1cc(C2CCN(C(=O)[C@@H]3C[C@@](C)(N(C)C)C[C@H]3c3ccc(F)cc3F)CC2)n(-c2cc(Cl)ccc2Cl)n1
Ki (Mus musculus [6]): 0.9 nM
Ki (Mus musculus [7]): 0.5 nM
IC50 [1]: 0.4 nM
fraction unbound [4]: 0.087
fraction unbound [5]: 0.013
remaining at 0.5 h [2]: 12%
remaining at 0.5 h [3]: 33.6%
Ki (Mus musculus [8]): 2.1 nM

Cc1cc(C2CCN(C(=O)[C@@H]3C[C@@](C)(N)C[C@H]3c3ccc(F)cc3F)CC2)n(-c2cc(Cl)ccc2Cl)n1
Ki (Mus musculus [6]): 2.1 nM
Ki (Mus musculus [7]): 1 nM
IC50 [1]: 0.9 nM
fraction unbound [4]: 0.071
fraction unbound [5]: 0.02
remaining at 0.5 h [2]: 39%
remaining at 0.5 h [3]: 78%
Ki (Mus musculus [8]): 5.2 nM

Cc1cc(C2CCN(C(=O)[C@@H]3C[C@@](C)(N(C)C)C[C@H]3c3ccc(F)cc3F)CC2)n(-c2ccc(F)c(Cl)c2)n1
Ki (Mus musculus [6]): 1.5 nM
Ki (Mus musculus [7]): 0.6 nM
IC50 [1]: 0.5 nM
fraction unbound [4]: 0.064
fraction unbound [5]: 0.035
Ki (Mus musculus [8]): 4.5 nM

Cc1cc(C2CCN(C(=O)[C@@H]3C[C@@](C)(N)C[C@H]3c3ccc(F)cc3F)CC2)n(-c2ccc(F)c(Cl)c2)n1
Ki (Mus musculus [6]): 3.7 nM
Ki (Mus musculus [7]): 1.6 nM
fraction unbound [4]: 0.043
fraction unbound [5]: 0.036
remaining at 0.5 h [2]: 60%
remaining at 0.5 h [3]: 90%
clearance [9]: 18 mL/min/kg
Vd [10]: 6.2 L/kg
half-life [11]: 4.9 h
AUC/dose (Mus musculus [12]): 1 µM·kg·h/mg
bioavailability [13]: 57%
Ki (Mus musculus [8]): 10.1 nM
concentration at 20 h [14]: 2820 nM
concentration at 20 h [15]: 246 nM
concentration at 20 h [16]: 363 nM
concentration at 20 h [17]: 39 nM
Kp at 20 h [18]: 0.17
Kp at 20 h [19]: 0.18
Activity (Mus musculus [20]): >=100%
Activity (Mus musculus [21]): 62.8%
Activity (Mus musculus [22]): 99.6%
Activity (Mus musculus [23]): 96.1%
Papp at 1 µM [24]: 24 ×10⁻⁶ cm/s

Cc1cc(C2CCN(C(=O)[C@@H]3C[C@](C)(N)C[C@H]3c3ccc(F)cc3F)CC2)n(-c2ccc(F)c(Cl)c2)n1
Ki (Mus musculus [6]): 24.7 nM
Ki (Mus musculus [7]): 10.9 nM
fraction unbound [4]: 0.069
fraction unbound [5]: 0.043
Ki (Mus musculus [8]): 66.1 nM

CN(C)[C@]1(C)C[C@H](C(=O)N2CCC(c3ccnn3-c3ccc(F)c(Cl)c3)CC2)[C@@H](c2ccc(F)cc2F)C1
fraction unbound [4]: 0.144
fraction unbound [5]: 0.091
remaining at 0.5 h [2]: 1%
remaining at 0.5 h [3]: 23%
concentration at 20 h [15]: 305 nM
concentration at 20 h [17]: 26 nM
Kp at 20 h [19]: 0.09
Activity (Mus musculus [21]): >=100%
Activity (Mus musculus [23]): 99.6%
Papp at 1 µM [24]: 23.1 ×10⁻⁶ cm/s
Activity (Mus musculus [25]): Non-toxic
Activity (Mus musculus [26]): 38%

CN(C)[C@@]1(C)C[C@H](C(=O)N2CCC(c3ccnn3-c3ccc(F)c(Cl)c3)CC2)[C@@H](c2ccc(F)cc2F)C1
fraction unbound [4]: 0.104
fraction unbound [5]: 0.132
remaining at 0.5 h [2]: 2%
remaining at 0.5 h [3]: 34%

C[C@@]1(N)C[C@H](C(=O)N2CCC(c3ccnn3-c3ccc(F)c(Cl)c3)CC2)[C@@H](c2ccc(F)cc2F)C1
Ki (Mus musculus [6]): 1.5 nM
Ki (Mus musculus [7]): 0.7 nM
IC50 [1]: 1 nM
fraction unbound [4]: 0.065
fraction unbound [5]: 0.035
remaining at 0.5 h [2]: 20%
remaining at 0.5 h [3]: 73%
Ki (Mus musculus [8]): 3.9 nM
concentration at 20 h [14]: 2130 nM
concentration at 20 h [15]: 185 nM
concentration at 20 h [27]: 23 nM
concentration at 20 h [16]: 142 nM
concentration at 20 h [17]: 51 nM
concentration at 20 h [28]: 6 nM
Kp at 20 h [18]: 0.07
Kp at 20 h [19]: 0.28
Kp at 20 h [29]: 0.18
Activity (Mus musculus [20]): >=100%
Activity (Mus musculus [21]): 72%
Activity (Mus musculus [30]): 31%
Activity (Mus musculus [22]): 100%
Activity (Mus musculus [23]): 100%
Activity (Mus musculus [31]): 84.2%
Papp at 1 µM [24]: 21.7 ×10⁻⁶ cm/s
Activity (Mus musculus [25]): Non-toxic
Activity (Mus musculus [26]): 38%

C[C@]1(N)C[C@H](C(=O)N2CCC(c3ccnn3-c3ccc(F)c(Cl)c3)CC2)[C@@H](c2ccc(F)cc2F)C1
IC50 [1]: 2.6 nM
fraction unbound [4]: 0.1
fraction unbound [5]: 0.061
remaining at 0.5 h [2]: 33%
remaining at 0.5 h [3]: 89%
